In patent US20150126464A1, “THERAPEUTIC DRUG AND THERAPEUTIC METHOD FOR NEUROLOGICAL DISEASES INCLUDING ALZHEIMER'S DISEASE ASSOCIATED WITH 1,25D3-MARRS” (priority 2013, published 2015):

Legend:
[1] = system: rat cortical neurons (SD E18); assay: Axon density after Aβ (1-42)-induced axonal atrophy with 1,25D3-MARRS neutralizing antibody; format: cell-based; settings: after Aβ (1-42) for 3 days; Ab099 clone 1:500; diosgenin 0.1 μM or 1 μM for 5 days
Experimental: Aβ (1-42) was incubated at 37° C. for four days for aggregation beforehand. […] After the 3-day treatment, a control antibody (normal rabbit IgG, 1:5000) was added to the cells, and the cells were incubated for 10 minutes and further treated with diosgenin (0.1 μM) for 5 days.
Seven to nine images were captured.

normal mice [2] = assay: Object recognition memory under continuous administration of 1,25D3-MARRS neutralizing antibody; format: in vivo, mouse; settings: normal ddY mice, diosgenin i.p.
Experimental: To neutralize the 1,25D3-MARRS function of normal mice (ddY mice, male, 6 weeks old), a polyclonal antibody specific to 1,25D3-MARRS, i.e., Ab099 clone, was intraventricularly administered in a continuous manner. Ab099 diluted in ACSF (artificial cerebrospinal fluid) was charged into a micro osmotic pump (model: 1007D, Alzet, Cupertino, Calif., USA) and a brain infusion kit 3 (Alzet). The dilution rate of Ab099 was determined depending on the cerebrospinal fluid (CSF) volume and the inflow velocity so that the concentration would be sufficient for Ab099 to act as a neutralizing antibody in CSF. Using stereotaxic apparatus, a brain infusion cannula (brain infusion kit) was inserted into the right ventricle of each mouse anesthetized beforehand (anterior/posterior: −0.22 mm posterior from bregma, medial/lateral: +1.0 mm, dorsal/ventral: −2.5 mm below surface). The entire cannula insertion site was covered with Loctite 454 (Alzet). The pump was subcutaneously implanted in the back of the mouse. The incision in the skin was sutured.
After the start of continuous antibody administration, the intraperitoneal administration of diosgenin was initiated. After 5-day administration of diosgenin, the object recognition memory training was initiated. The next day, the last administration of diosgenin was performed. The test session was initiated 48 hours after the start of the training session. […]

normal mice [3] = assay: Location recognition test in normal mice; format: in vivo, mouse; settings: diosgenin i.p. 7 days, 48 hours training-test interval
Experimental: (§1) Diosgenin (Wako Pure Chemical Industries, Ltd., Osaka, Japan) was dissolved in ethanol at 10 times the final concentration to give a stock solution, and the stock solution was diluted in a 5% aqueous solution of glucose to the final concentration. The diosgenin solution was intraperitoneally administered to normal mice (ddY mice, male, 6 weeks old) once a day (10 μmol/kg/day) for 5 or 6 days. One hour after the last administration, each mouse was housed in a separate open-field box made of polyvinyl chloride (33 cm×28 cm; height: 26.5 cm), habituated to the environment for 10 minutes, and used in the test.
Intraperitoneal administration to the mice of Example 2 and Comparative Example 3 was performed for 7 days. One hour after the last administration, a location recognition test was performed to evaluate the spatial recognition memory. Testing was carried out in a dimly illuminated room (100 lux). The test was performed as described in Tohda, C. et al., Br J Pharmacol. 157, 1427-1440, 2009, written by the inventor and others, except that the time interval between a training session and a test session was 48 hours. As a locomotion index, the path of each mouse was tracked using a digital camera system. The distance each mouse traveled during the 10 minutes was analyzed as locomotion activity with EthoVision 3.0 (Noldus, Wageningen, The Netherlands).

normal mice [4] = assay: Novel object recognition test in normal mice; format: in vivo, mouse
Experimental: as §1
Using the mice of Example 8 and Comparative Example 11, a novel object recognition test was performed to evaluate the object recognition memory. Testing was carried out in a dimly illuminated room (100 lux). The test was performed as described in Joyashiki, E. et sl., Int J Neurosci, 121, 181-190, 2011 and Tohda, C. et al., Int J Neurosci, 121, 641-648, 2011, written by the inventors and others, except that the time interval between a training session and a test session was 48 hours. As a locomotion index, the path of each mouse was tracked using a digital camera system. The distance each mouse traveled during the 10 minutes was analyzed as locomotion activity with EthoVision 3.0 (Noldus, Wageningen, The Netherlands).
The diosgenin solution was intraperitoneally administered to normal mice (C57BL/6, male, 8 weeks old) (100 μmol/kg/day) for 14 days. On the day after the 14th administration, the mice were used in the test.
Using the mice of Example 9 and Comparative Example 12, the novel object recognition test was performed. The test was performed under the conditions as described above.
Dioscin in an amount of 30 μmol/kg/day was orally administered to normal mice (ddY mice, male, 6 weeks old) for 4 days. Dioscin (Chromadex, Irvine, Calif., USA) was dissolved in ethanol at 10 times the final concentration to give a stock solution, and the stock solution was diluted in a 5% aqueous solution of glucose to the final concentration. […]

In the case of C[C@@H]1CC[C@@]2(OC1)O[C@H]1C[C@H]3[C@@H]4CC=C5C[C@@H](O)CC[C@]5(C)[C@H]4CC[C@]3(C)[C@H]1[C@@H]2C [diosgenin], the “diosgenin-induced axonal growth in cells where 1,25D3-MARRS was inhibited by the neutralizing antibody” value [1] was “significantly suppressed”, the “preferential index, mice treated with ACSF and diosgenin” value (normal mice [2]; ACSF intraventricular, test 48 hours after training) was “significantly improved” and the “memory improvement attributable to diosgenin in mice given 1,25D3-MARRS neutralizing antibody” value (normal mice [2]; Ab099 clone intraventricular continuous) was “completely offset”. For the same compound, the “frequency of exploratory behavior for the object moved to a new location” value (normal mice [3]) was over 50%, the object recognition memory (normal mice [4]; normal C57BL/6 mice, diosgenin 100 μmol/kg/day i.p. 14 days) was “significantly improved” and the “behavior index of exploratory behavior for the novel object” value (normal mice [4]; normal ddY mice, diosgenin 10 μmol/kg/day i.p. 5 or 6 days, 48 hours training-test interval) was “higher than 50%”.
